From patent US8293715B2, “10a-Azalide compound crosslinked at 10a- and 12-positions” (Taisho Pharmaceutical Co., Ltd., priority 2007, dated 2012)
In brackets after ≈: the same amount, converted by molar mass.

Experiments:
Assay type in all cases: cell-based
[1] = system: H. influenzae ATCC 43095; test: In vitro antibacterial activity, MIC by microbroth dilution method (CLSI method), test bacteria symbol A; details: Haemophilus influenzae, ATCC43095, read-out: MIC (minimum inhibitory concentration), test bacteria A
Description: (§1) In vitro antibacterial activities of the compounds of the present invention against various test bacteria were measured according to the microbroth dilution method (CLSI method). As Comparative agent 1, clarithromycin was used, and the results for typical exemplary compounds are shown as MIC values (minimum inhibitory concentration, μg/ml) in Table 19.

[2] = system: S. pneumoniae ATCC 49619; test: In vitro antibacterial activity, MIC by microbroth dilution method (CLSI method), test bacteria symbol B; details: Streptococcus pneumoniae, ATCC49619, read-out: MIC (minimum inhibitory concentration), test bacteria B
Description: as §1

[3] = system: S. pneumoniae ATCC 700904; test: In vitro antibacterial activity, MIC by microbroth dilution method (CLSI method), test bacteria symbol C; details: Streptococcus pneumoniae, ATCC700904, read-out: MIC (minimum inhibitory concentration), test bacteria C
Description: as §1

Row | SMILES | MIC [1] [µg/mL] | MIC [2] [µg/mL] | MIC [3] [µg/mL]
1 | CC[C@H]1OC(=O)[C@H](C)[C@@H](O[C@H]2C[C@@](C)(OC)[C@@H](O)[C@H](C)O2)[C@H](C)[C@@H](O[C@@H]2O[C@H](C)C[C@H](N(C)C)[C@H]2O)[C@](C)(OC)C[C@@H](C)C(=O)[C@H](C)[C@@H](O)[C@]1(C)O [Comparative agent 1, clarithromycin, reference compound] | 4 (≈ 5.35 µM) | 0.03 (≈ 0.0401 µM) | > 128
2 | CO[C@@]1(C)C[C@@H](C)[C@H](O)[C@H](C)N2C[C@@H](COc3cccc(C(C)(C)C)c3)[C@H](C2)OC(=O)C(C)(Cl)C(=O)[C@H](C)[C@H]1O[C@@H]1O[C@H](C)C[C@H](N(C)C)[C@H]1O (stereo partly drawn) [Example522] | 16 (≈ 21.6 µM) | 8 (≈ 10.8 µM) | > 16
3 | CO[C@]1(C)C[C@H](O[C@H]2[C@H](C)[C@@H](O[C@@H]3O[C@H](C)C[C@H](N(C)C)[C@H]3O)[C@@](C)(OC)C[C@@H](C)[C@H](O)[C@H](C)N3CCC[C@@H](C3)OC(=O)[C@@H]2C)O[C@@H](C)[C@@H]1O [Example525] | 0.5 (≈ 0.697 µM) | 0.25 (≈ 0.349 µM) | > 128
4 | CO[C@]1(C)C[C@H](O[C@H]2[C@H](C)[C@@H](O[C@@H]3O[C@H](C)C[C@H](N(C)C)[C@H]3O)[C@@](C)(OC)C[C@@H](C)[C@H](O)[C@H](C)N3C[C@@H](COCc4ccccc4)[C@H](C3)OC(=O)[C@@H]2C)O[C@@H](C)[C@@H]1O [Example523] | 4 (≈ 4.86 µM) | 0.12 (≈ 0.146 µM) | > 128
